Test results reported in patent US20260184713A1, “KINASE INHIBITORS” (The United States of America, as represented by the …, priority 2022, published 2026).
Where two headings read alike, the source gives them in different places.

How the values were obtained:
Test in all cases: HOTSPOT radiometric kinase assay
CDK9 = target: T1, CDK9 (Homo sapiens, UniProt P50750); assay type: biochemical; settings: 50 nM, 10 μM ATP
T1 construct: purchased Reaction Biology Corp

PKCδ = target: T2, PKCδ (Homo sapiens, UniProt Q05655); assay type: biochemical
T2 construct: purchased Reaction Biology Corp

MST3 = target: T3, MST3 (Homo sapiens, UniProt Q9Y6E0); assay type: biochemical; settings: 10 μM ATP
T3 construct: purchased Reaction Biology Corp

DCAMKL1 = target: T4, DCAMKL1 (Homo sapiens, UniProt O15075); assay type: biochemical; settings: 10 μM ATP
T4 construct: purchased Reaction Biology Corp

CLK4 = target: T5, CLK4 (Homo sapiens, UniProt Q9HAZ1); assay type: biochemical
T5 construct: purchased Reaction Biology Corp

PKG2 = target: T6, PKG2 (Homo sapiens, UniProt Q13237); assay type: biochemical; settings: 10 μM ATP
T6 construct: purchased Reaction Biology Corp

DYRK3 = target: T7, DYRK3 (Homo sapiens, UniProt O43781); assay type: biochemical
T7 construct: purchased Reaction Biology Corp
T7 sequence (O43781 1-588): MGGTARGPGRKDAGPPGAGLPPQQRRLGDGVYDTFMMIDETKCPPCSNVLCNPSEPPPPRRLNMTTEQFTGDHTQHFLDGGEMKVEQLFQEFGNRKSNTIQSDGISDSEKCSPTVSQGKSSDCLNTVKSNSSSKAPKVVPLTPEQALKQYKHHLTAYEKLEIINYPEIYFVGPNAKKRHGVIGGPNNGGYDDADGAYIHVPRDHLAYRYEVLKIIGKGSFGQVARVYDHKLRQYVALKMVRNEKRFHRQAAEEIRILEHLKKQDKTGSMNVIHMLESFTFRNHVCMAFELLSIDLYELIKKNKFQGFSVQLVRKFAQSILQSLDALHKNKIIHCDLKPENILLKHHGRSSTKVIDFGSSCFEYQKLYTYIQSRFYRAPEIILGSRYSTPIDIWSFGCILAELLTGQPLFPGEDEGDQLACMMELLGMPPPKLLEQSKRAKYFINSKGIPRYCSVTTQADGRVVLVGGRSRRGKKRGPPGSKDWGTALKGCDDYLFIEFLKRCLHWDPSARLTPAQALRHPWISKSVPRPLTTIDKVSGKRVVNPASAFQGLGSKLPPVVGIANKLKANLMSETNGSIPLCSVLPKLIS

RSK2 = target: T8, RSK2 (Homo sapiens, UniProt P51812); assay type: biochemical; settings: 10 μM ATP
T8 construct: purchased Reaction Biology Corp

PKCθ = target: T9, PKCθ (Homo sapiens, UniProt Q04759); assay type: biochemical; settings: 2 μM, 10 μM ATP
T9 construct: purchased Reaction Biology Corp

CLK3 = target: T10, CLK3 (Homo sapiens, UniProt P49761); assay type: biochemical; settings: 10 μM ATP
T10 construct: purchased Reaction Biology Corp. (Malvern, PA, USA)

MPSK1 = target: T11, MPSK1 (Homo sapiens, UniProt O75716); assay type: biochemical; settings: 10 μM ATP
T11 construct: purchased Reaction Biology Corp

BRAF = target: T12, BRAF (Homo sapiens, UniProt P15056); assay type: biochemical; settings: 10 μM ATP
T12 construct: purchased Reaction Biology Corp

NLK = target: T13, NLK (Homo sapiens, UniProt Q9UBE8); assay type: biochemical; settings: 10 μM ATP
T13 construct: purchased Reaction Biology Corp

ERBB2/HER2 = ERBB2/HER2 (Homo sapiens, UniProt P04626)
BMX = target: T14, BMX (Homo sapiens, UniProt P51813); assay type: biochemical; settings: 10 μM ATP
T14 construct: purchased Reaction Biology Corp

CK1α1 = CK1α1 (Homo sapiens, UniProt P48729)
CDK2 = target: T15, CDK2 (Homo sapiens, UniProt P24941); assay type: biochemical; settings: 10 μM ATP
T15 construct: purchased Reaction Biology Corp

MSK2 = target: T16, MSK2 (Homo sapiens, UniProt O75676); assay type: biochemical; settings: 10 μM ATP
T16 construct: purchased Reaction Biology Corp

HASPIN = target: T17, HASPIN (Homo sapiens, UniProt Q8TF76); assay type: biochemical; settings: 10 μM ATP
T17 construct: purchased Reaction Biology Corp

RSK1 = target: T18, RSK1 (Homo sapiens, UniProt Q15418); assay type: biochemical; settings: 10 μM ATP
T18 construct: purchased Reaction Biology Corp

T5 sequence (Q9HAZ1 whole entry): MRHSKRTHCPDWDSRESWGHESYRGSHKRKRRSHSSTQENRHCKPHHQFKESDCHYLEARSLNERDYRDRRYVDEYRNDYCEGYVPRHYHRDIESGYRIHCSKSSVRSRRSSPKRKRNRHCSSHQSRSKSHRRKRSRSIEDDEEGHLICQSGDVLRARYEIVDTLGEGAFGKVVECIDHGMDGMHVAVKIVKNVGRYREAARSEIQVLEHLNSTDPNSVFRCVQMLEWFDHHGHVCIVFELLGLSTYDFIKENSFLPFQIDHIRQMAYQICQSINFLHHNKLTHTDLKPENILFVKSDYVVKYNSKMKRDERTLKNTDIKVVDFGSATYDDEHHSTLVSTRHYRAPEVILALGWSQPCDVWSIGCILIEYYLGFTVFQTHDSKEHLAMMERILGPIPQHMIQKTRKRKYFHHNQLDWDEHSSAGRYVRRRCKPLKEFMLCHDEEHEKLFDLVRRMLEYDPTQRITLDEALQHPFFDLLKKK
T2 sequence (Q05655 whole entry): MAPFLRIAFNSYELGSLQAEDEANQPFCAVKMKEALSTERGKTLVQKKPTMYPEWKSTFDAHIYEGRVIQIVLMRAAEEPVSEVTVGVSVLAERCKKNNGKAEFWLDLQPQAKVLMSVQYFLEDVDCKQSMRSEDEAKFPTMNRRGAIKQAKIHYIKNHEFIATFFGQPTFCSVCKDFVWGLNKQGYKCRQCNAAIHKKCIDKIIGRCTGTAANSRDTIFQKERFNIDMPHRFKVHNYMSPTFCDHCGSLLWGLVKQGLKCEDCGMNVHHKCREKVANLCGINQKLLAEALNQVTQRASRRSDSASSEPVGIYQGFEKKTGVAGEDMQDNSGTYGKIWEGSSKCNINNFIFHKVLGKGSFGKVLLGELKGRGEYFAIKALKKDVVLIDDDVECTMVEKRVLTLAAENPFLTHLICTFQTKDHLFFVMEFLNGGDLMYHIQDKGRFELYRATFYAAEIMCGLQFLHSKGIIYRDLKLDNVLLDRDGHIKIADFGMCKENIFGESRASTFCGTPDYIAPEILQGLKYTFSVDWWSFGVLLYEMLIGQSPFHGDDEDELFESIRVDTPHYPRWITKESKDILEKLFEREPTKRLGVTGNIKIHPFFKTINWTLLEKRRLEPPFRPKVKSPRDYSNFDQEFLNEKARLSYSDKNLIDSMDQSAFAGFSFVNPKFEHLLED
T12 sequence (P15056 whole entry): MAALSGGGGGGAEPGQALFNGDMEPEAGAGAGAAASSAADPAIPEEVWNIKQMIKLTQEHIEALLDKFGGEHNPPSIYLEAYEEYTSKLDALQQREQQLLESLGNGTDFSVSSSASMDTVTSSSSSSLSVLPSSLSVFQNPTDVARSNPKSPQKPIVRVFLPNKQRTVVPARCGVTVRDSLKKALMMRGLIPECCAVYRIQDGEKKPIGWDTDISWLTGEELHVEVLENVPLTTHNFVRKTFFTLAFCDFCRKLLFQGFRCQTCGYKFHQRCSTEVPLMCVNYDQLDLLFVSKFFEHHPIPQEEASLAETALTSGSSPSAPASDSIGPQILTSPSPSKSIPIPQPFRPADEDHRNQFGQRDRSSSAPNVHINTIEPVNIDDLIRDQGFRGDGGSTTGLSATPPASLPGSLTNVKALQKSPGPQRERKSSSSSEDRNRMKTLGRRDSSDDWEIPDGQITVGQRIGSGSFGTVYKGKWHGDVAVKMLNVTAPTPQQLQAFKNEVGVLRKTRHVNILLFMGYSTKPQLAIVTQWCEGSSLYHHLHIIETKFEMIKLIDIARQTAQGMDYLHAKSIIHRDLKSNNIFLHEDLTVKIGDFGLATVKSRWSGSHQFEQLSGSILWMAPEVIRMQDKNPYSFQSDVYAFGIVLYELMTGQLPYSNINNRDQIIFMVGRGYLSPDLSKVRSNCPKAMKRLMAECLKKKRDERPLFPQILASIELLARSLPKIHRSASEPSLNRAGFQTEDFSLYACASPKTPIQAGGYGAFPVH
T8 sequence (P51812 whole entry): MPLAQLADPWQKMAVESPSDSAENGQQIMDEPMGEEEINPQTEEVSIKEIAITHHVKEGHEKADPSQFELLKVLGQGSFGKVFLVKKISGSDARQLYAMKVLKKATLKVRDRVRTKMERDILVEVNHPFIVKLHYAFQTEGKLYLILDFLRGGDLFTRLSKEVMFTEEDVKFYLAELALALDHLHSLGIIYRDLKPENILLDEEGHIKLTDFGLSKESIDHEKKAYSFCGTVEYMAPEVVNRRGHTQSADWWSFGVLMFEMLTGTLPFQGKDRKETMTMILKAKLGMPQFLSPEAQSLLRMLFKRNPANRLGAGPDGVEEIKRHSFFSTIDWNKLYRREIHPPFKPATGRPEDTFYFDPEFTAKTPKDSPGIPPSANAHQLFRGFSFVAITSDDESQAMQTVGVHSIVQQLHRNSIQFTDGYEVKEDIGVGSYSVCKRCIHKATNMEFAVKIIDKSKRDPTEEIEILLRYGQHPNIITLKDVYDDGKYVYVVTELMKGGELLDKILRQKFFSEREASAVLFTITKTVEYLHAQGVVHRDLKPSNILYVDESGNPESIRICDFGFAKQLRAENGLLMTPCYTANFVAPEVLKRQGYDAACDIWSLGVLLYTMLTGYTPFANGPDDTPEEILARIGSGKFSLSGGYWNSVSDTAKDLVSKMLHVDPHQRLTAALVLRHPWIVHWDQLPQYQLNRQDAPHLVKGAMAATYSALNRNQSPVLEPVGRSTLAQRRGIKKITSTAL
T16 sequence (O75676 whole entry): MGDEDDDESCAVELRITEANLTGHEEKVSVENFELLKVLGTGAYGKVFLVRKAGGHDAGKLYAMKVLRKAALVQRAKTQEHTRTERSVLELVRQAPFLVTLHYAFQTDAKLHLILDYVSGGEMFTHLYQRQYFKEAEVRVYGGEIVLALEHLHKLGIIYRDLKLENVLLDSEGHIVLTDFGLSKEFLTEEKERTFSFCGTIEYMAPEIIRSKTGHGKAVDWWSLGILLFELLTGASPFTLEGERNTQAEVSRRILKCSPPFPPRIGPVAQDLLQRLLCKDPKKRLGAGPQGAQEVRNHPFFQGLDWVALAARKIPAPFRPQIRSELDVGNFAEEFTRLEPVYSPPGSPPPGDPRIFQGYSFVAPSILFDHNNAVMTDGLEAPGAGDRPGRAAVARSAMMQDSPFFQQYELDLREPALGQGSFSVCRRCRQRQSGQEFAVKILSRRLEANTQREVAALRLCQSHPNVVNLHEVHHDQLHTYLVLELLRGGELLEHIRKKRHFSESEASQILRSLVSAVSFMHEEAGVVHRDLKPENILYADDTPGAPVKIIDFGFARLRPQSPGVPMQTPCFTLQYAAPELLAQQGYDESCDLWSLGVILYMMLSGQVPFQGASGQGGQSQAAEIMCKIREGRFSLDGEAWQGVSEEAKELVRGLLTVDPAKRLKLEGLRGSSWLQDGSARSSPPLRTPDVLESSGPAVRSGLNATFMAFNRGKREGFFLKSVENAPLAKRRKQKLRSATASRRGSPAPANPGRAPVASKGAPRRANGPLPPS
Sequence of ERBB2/HER2 (P04626 23-1255): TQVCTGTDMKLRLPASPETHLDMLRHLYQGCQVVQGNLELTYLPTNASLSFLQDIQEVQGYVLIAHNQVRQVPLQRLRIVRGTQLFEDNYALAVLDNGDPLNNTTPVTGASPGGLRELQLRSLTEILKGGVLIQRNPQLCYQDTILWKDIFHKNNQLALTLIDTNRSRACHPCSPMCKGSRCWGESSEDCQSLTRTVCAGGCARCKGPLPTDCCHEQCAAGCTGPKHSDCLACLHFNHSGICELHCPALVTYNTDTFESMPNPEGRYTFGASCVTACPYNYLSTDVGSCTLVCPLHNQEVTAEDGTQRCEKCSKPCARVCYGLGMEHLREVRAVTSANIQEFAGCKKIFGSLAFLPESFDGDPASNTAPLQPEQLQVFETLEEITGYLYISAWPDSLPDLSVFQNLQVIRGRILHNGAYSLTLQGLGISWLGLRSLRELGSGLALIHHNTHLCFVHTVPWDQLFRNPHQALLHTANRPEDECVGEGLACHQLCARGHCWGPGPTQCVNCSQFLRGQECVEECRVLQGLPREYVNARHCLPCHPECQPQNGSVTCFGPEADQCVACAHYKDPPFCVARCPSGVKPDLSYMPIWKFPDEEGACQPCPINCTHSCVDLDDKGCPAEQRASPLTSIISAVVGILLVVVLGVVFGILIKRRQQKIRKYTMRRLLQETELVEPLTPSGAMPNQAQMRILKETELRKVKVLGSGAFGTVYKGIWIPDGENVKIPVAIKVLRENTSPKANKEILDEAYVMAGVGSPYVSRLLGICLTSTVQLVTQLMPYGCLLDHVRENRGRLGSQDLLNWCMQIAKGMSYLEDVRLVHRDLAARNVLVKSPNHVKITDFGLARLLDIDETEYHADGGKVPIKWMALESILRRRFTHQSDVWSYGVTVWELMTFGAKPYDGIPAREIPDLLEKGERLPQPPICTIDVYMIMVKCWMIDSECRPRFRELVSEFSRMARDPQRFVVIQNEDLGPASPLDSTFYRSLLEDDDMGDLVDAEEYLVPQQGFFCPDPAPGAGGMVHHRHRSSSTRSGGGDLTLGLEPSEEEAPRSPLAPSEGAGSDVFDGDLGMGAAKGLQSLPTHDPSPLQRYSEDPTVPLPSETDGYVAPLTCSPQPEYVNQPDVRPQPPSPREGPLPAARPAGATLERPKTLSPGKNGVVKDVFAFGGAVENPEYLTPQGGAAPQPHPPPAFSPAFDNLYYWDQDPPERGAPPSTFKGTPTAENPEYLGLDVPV
T11 sequence (O75716 whole entry): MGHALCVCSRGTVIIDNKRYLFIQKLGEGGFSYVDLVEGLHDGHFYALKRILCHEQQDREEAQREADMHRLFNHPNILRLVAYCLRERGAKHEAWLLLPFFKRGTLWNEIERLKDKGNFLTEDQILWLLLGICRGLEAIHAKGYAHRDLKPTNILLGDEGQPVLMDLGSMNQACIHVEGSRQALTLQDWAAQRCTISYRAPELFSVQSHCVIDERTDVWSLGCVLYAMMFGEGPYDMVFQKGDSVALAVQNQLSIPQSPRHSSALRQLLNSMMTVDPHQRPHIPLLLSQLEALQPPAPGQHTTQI

Question: How did the inhibition at 0.05 µM (CDK9) turn out when `Cn1cncc1C1=CN(c2ncnc3nc[nH]c23)CCS1` [Compound 1, Aplithianine A] was run?
Answer: 12.4%

Question: And the inhibition at 0.05 µM (PKCδ; 50 nM, 10 μM ATP)?
Answer: 12.6%

Question: And the inhibition at 2 µM (PKCδ; 2 μM, 10 μM ATP)?
Answer: 81.1%

Question: And the IC50 (PKCδ; 10 μM ATP, read-out: PKCδ IC50)?
Answer: 184 nM

Question: And the “PKCd Differential (as compared to PKG1a)” value (PKCδ; IC50 (kinase)/IC50 (PKG1a))?
Answer: 16.77

Question: What about the IC50 (PKCδ; Table 4 dose-response, read-out: PKCd IC50 Values) of the same compound?
Answer: 191 nM

Question: What about the inhibition at 0.05 µM (MST3; 50 nM) of the same compound?
Answer: 13.2%

Question: What about the inhibition at 2 µM (MST3; 2 μM) of the same compound?
Answer: -15.6%

Question: And the inhibition at 0.05 µM (DCAMKL1; 50 nM)?
Answer: 12.8%

Question: And the inhibition at 2 µM (DCAMKL1; 2 μM)?
Answer: 14.2%

Question: And the inhibition at 0.05 µM (CLK4; 50 nM, 10 μM ATP)?
Answer: 27.1%

Question: And the inhibition at 2 µM (CLK4; 2 μM, 10 μM ATP)?
Answer: 84.7%

Question: What about the IC50 (CLK4; 10 μM ATP, read-out: CLK4 IC50) of the same compound?
Answer: 153 nM

Question: And the “CLK4 Differential (as compared to PKG1a)” value (CLK4; IC50 (kinase)/IC50 (PKG1a))?
Answer: 13.49

Question: What about the IC50 (CLK4; Table 4 dose-response, read-out: CLK4 IC50 Values) of the same compound?
Answer: 154 nM

Question: What about the inhibition at 2 µM (PKG2) of the same compound?
Answer: 99.4%

Question: What about the inhibition at 0.05 µM (DYRK3; 50 nM, 10 μM ATP) of the same compound?
Answer: 15.9%

Question: What about the inhibition at 2 µM (DYRK3; 2 μM, 10 μM ATP) of the same compound?
Answer: 90.9%

Question: What about the IC50 (DYRK3; 10 μM ATP, read-out: DYRK3 IC50) of the same compound?
Answer: 202 nM

Question: And the “DYRK3 Differential (as compared to PKG1a)” value (DYRK3; IC50 (kinase)/IC50 (PKG1a))?
Answer: 19.13

Question: What about the IC50 (DYRK3; Table 4 dose-response, read-out: DYRK3 IC50 Values) of the same compound?
Answer: 218 nM

Question: And the inhibition at 0.05 µM (RSK2; 50 nM)?
Answer: 12.3%

Question: What about the inhibition at 2 µM (RSK2; 2 μM) of the same compound?
Answer: 66%

Question: And the inhibition at 2 µM (PKCθ)?
Answer: 97.9%

Question: And the IC50 (CLK3)?
Answer: 14100 nM

Question: And the inhibition at 0.05 µM (MPSK1; 50 nM)?
Answer: 22%

Question: And the inhibition at 2 µM (MPSK1; 2 μM)?
Answer: 49.5%

Question: And the inhibition at 0.05 µM (BRAF; 50 nM)?
Answer: 12.9%

Question: And the inhibition at 2 µM (BRAF; 2 μM)?
Answer: 35.1%

Question: And the inhibition at 0.05 µM (NLK; 50 nM)?
Answer: 19.6%

Question: And the inhibition at 2 µM (NLK; 2 μM)?
Answer: 43%

Question: What about the IC50 (ERBB2/HER2) of the same compound?
Answer: 18000 to 65000 nM

Question: And the IC50 (ERBB2/HER2; read-out: ERBB2/HER2 IC50, 10 μM ATP)?
Answer: 26400 nM

Question: What about the inhibition at 0.05 µM (BMX; 50 nM) of the same compound?
Answer: 13.9%

Question: What about the inhibition at 2 µM (BMX; 2 μM) of the same compound?
Answer: 40%

Question: What about the IC50 (CK1α1) of the same compound?
Answer: 800 to 6600 nM

Question: What about the IC50 (CK1α1; read-out: CK1α1 IC50, 10 μM ATP) of the same compound?
Answer: 1830 nM

Question: What about the inhibition at 0.05 µM (CDK2; 50 nM) of the same compound?
Answer: 12.6%

Question: And the inhibition at 2 µM (CDK2; 2 μM)?
Answer: 49.1%

Question: And the inhibition at 0.05 µM (MSK2; 50 nM)?
Answer: 13.3%

Question: And the inhibition at 2 µM (MSK2; 2 μM)?
Answer: 75.5%

Question: What about the inhibition at 0.05 µM (HASPIN; 50 nM) of the same compound?
Answer: 25.6%

Question: What about the inhibition at 2 µM (HASPIN; 2 μM) of the same compound?
Answer: 88.4%

Question: What about the inhibition at 0.05 µM (RSK1; 50 nM) of the same compound?
Answer: 13%

Question: And the inhibition at 2 µM (RSK1; 2 μM)?
Answer: 82%
